Measurements from patent US20260116845A1, “LIPIDS AND COMPOSITIONS THEREOF” (Kernal Biologics, Inc., priority 2023, published 2026).

Columns and labels:
[1] = system: AML12 Cell Line; assay: Transfection of AML12 Cell Line with FLuc mRNA LNPs (ONE-Glo EX luciferase signal); format: cell-based; settings: 200 ng Fluc mRNA-LNP, 24 hours
Experimental: (§1) mRNA encapsulated lipid nanoparticles (mRNA LNPs) were formulated using microfluidic mixing with a PNI Ignite instrument. Briefly, lipids (ionizable: structural: helper: PEG) were dissolved in ethanol and mixed with and aqueous solution of mRNA. These mRNA-loaded dispersions were then neutralized via a buffer exchange with a pre-determined buffer overnight. Afterwards, formed LNPs were concentrated with Amicon filter centrifugation, filtered, concentration of mRNA determined through a ribogreen assay, and frozen at −80° C. until use.
(§2) Cell lines were grown to confluence in T75 flasks using complete media of DMEM-F12 for AML12 and DMEM for both B16F10 and MC38.K. Cells were plated in a white 96 flat-well plate (AML12=20,000 cells/well, B16F10 and MC38.K=5,000 cells/well) with their respected media. Lipid nanoparticles were first diluted to 50 μg/ml using Opti-MEM and pre-incubated with mouse serum for 30 minutes to give an LNP concentration of 8 μg/ml. Cell media was replaced with Opti-MEM and LNPs were added to cells (200 ng of mRNA-LNP), placed back in the incubator, and allowed to transfect for 24 hours. Afterwards, 100 μl of Promega's ONE-Glo™ EX Luciferase Assay System or Promega's CellTiter-Glo® Luminescent Cell Viability Assay was added and mixed in their respective wells, followed by recording luminescence signals on a Thermo Scientific Varioskan LUX multimode microplate reader. The results are shown in FIG. 1, FIG. 2, FIG. 3, FIG. 4, FIG. 5, FIG. 6, FIG. 10, FIG. 11, and FIG. 21.

[2] = system: Liver; assay: Ex-vivo luminescence signal from liver after IV Fluc mRNA LNPs in CD1 mice (IVIS); settings: tail vein 1.0 mg/kg Day 0 and Day 2, imaging 18 hours after second dose, Table 4
[3] = system: MC38.K Cell Line; assay: Transfection of MC38.K Cell Line with FLuc mRNA LNPs (ONE-Glo EX luciferase signal); format: cell-based; settings: 200 ng Fluc mRNA-LNP, 24 hours; for Total Luciferin Signal (RLU) In Vitro - MC38.K: Table 4
Experimental: as §1, §2

[4] = system: B16F10 Cell Line; assay: Transfection of B16F10 Cell Line with FLuc mRNA LNPs (ONE-Glo EX luciferase signal); format: cell-based; settings: 200 ng Fluc mRNA-LNP, 24 hours
Experimental: as §1, §2

| SMILES | Total Luciferin Signal (RLU) In Vitro - AML12 ([1]; Table 4) | Total Liver Tissue Luciferin Signal (Photons/s) Ex-vivo - CD1 [2] | Total Luciferin Signal (RLU) In Vitro - MC38.K [3] | Total Luciferin Signal (RLU) In Vitro - B16F10 ([4]; Table 4) | Total Luciferin Signal (RLU) In Vitro - AML12 ([1]; Table 5) | Total Luciferin Signal (RLU) In Vitro-MC38 ([3]; Table 5) | Total Luciferin Signal (RLU) In Vitro - B16F10 ([4]; Table 5) |
| --- | --- | --- | --- | --- | --- | --- | --- |
| CCCCCCCCC(CCCCCCCC)OC(=O)CCCCCCCN(CCO)CCCCCC(=O)OCCCCCCCCC(C)C [Compound 1] | 1.96E+06 RLU | 9.00E+09 Photons/s | 7.83E+06 RLU | 6.92E+06 RLU |  |  |  |
| CCCCCCCCC(CCCCCCCC)OC(=O)CCCCCCCN(CCO)CCCCCCCC(=O)OCCCCCCCCC(C)C [Compound 2] | 4.76E+06 RLU | 6.20E+09 Photons/s | 4.24E+06 RLU | 5.94E+06 RLU |  |  |  |
| CCCCCCCCC(CCCCCCCC)OC(=O)CCCCCCCN(CCCCCCCC(=O)OCCCCCCCCC(C)C)CCOC(=O)CCCN(C)C [Compound 3] | 3.82E+06 RLU | 8.57E+07 Photons/s | 2.99E+06 RLU | 4.58E+06 RLU |  |  |  |
| CCCCCCCCC(CCCCCCCC)C(=O)OCCCCCCCN(CCO)CCCCCCCC(=O)OCCCCCCCCC(C)C [Compound 4] | 1.72E+06 RLU | 1.06E+09 Photons/s | 3.54E+06 RLU | 2.16E+06 RLU |  |  |  |
| CCCCCCCCC(CCCCCCCC)C(=O)OCCCCCCCN(CCO)CCCCCC(=O)OCCCCCCCCC(C)C [Compound 6] | 8.42E+05 RLU | 2.10E+09 Photons/s | 9.66E+05 RLU | 5.77E+05 RLU |  |  |  |
| CCCCCCCCC(CCCCCCCC)C(=O)OCCCCCCCN(CCCCCC(=O)OCCCCCCCCC(C)C)CCOC(=O)CCCN(C)CCO [Compound 8] | 1.43E+05 RLU | 2.13E+08 Photons/s | 3.40E+06 RLU | 9.69E+05 RLU |  |  |  |
| CCCCCCCCC(CCCCCCCC)C(=O)OCCCCCCCN(CCCCCC(=O)OCCCCCCCCC(C)C)CCOC(=O)CCCN(C)C [Compound 9] | 6.57E+05 RLU | 4.41E+07 Photons/s | 1.23E+06 RLU | 3.27E+06 RLU |  |  |  |
| CCCCCCCCC(CCCCCCCCF)OC(=O)CCCCCCCN(CCO)CCCCCCCC(=O)OCCCCCCCCC(C)C (stereo not shown) [Compound 10] | 7.51E+05 RLU | 8.34E+09 Photons/s | 6.38E+05 RLU | 4.57E+05 RLU |  |  |  |
| CCCCCCCCC(CCCCCCCC)OC(=O)CCCCCCCN(CCO)CCCCCCCOC(=O)CCCCCCCCC(C)C [Compound 11] | 4.29E+06 RLU | 4.88E+09 Photons/s | 7.64E+06 RLU | 7.92E+06 RLU |  |  |  |
| CCCCCCCCC(CCCCCCCC)OC(=O)CCCCCCCN(CCCCCCCOC(=O)CCCCCCCCC(C)C)CCOC(=O)CCCN(C)C [Compound 12] | 7.43E+05 RLU | 4.15E+07 Photons/s | 4.07E+06 RLU | 2.79E+06 RLU |  |  |  |
| CCCCCCCCCCCOC(=O)CCCCCN(CCO)CCCCCCCC(=O)OC(CCCCCCCC)CCCCCC(C)C (stereo not shown) [Compound 18] | 2.99E+06 RLU | 4.74E+09 Photons/s |  | 2.65E+06 RLU |  |  |  |
| CCCCCCCCCCCCN(CCO)CCCCCCCC(=O)OC(CCCCCCCC)CCCCCCCC [Compound 41] | 3.63E+06 RLU | 8.12E+09 Photons/s |  | 2.52E+06 RLU |  |  |  |
| CCCCCCCCCOC(=O)CCCCCCCN(CCO)CCCCCCCCOC(=O)C(CCCC)CCCCCCF (stereo not shown) [Compound 82, 8-((2-hydroxyethyl)(8-(nonyloxy)-8-oxooctyl)amino)octyl 2-butyl-8-fluorooctanoate] | 1.48E+04 RLU |  | 6.18E+04 RLU | 1.70E+04 RLU |  |  |  |
| CCCCCCCCCOC(=O)CCCCCCCN(CCO)CCCCCCCC(=O)OC(CCCCCCCC)CCCCCCCCCl (stereo not shown) [Compound 83, 1-chloroheptadecan-9-yl 8-((2-hydroxyethyl)(8-(nonyloxy)-8-oxooctyl)amino)octanoate] | 1.85E+05 RLU |  | 2.14E+06 RLU | 4.41E+05 RLU |  |  |  |
| CCCCCCCCCOC(=O)CCCCCCCN(CCO)CCCCCCCC(=O)OC(CCCCCCCF)CCCCCCCF [Compound 84, 1,15-difluoropentadecan-8-yl 8-((2-hydroxyethyl)(8-(nonyloxy)-8-oxooctyl)amino)octanoate] | 5.18E+04 RLU |  | 5.52E+05 RLU | 8.32E+04 RLU |  |  |  |
| CCCCCCCCCOC(=O)C(C)CCCCCCN(CCCCO)CCCCCCCC(=O)OCC(CCCCCC)CCCCCCCCF (stereo not shown) [Compound 85, nonyl 8-((8-((10-fluoro-2-hexyldecyl)oxy)-8-oxooctyl)(4-hydroxybutyl)amino)-2-methyloctanoate] | 7.47E+06 RLU |  | 6.32E+07 RLU | 1.03E+07 RLU |  |  |  |
| CCCCCCC(CCCCCCCCF)COC(=O)CCCCCCCN(CCCCO)CCCCCCC(C)C(=O)OCCCCCCCCC(C)C (stereo not shown) [Compound 86, 9-methyldecyl 8-((8-((10-fluoro-2-hexyldecyl)oxy)-8-oxooctyl)(4-hydroxybutyl)amino)-2-methyloctanoate] | 3.99E+06 RLU |  | 3.80E+07 RLU | 7.58E+06 RLU |  |  |  |
| CCCCCCCCC(CCCCCCCCF)C(=O)OCCCCCCCN(CCO)CCCCCCCOC(=O)C(C)CCCCCCCC(C)C (stereo not shown) [Compound 87, 7-((7-((10-fluoro-2-octyldecanoyl)oxy)heptyl)(2-hydroxyethyl)amino)heptyl 2,10-dimethylundecanoate] | 1.52E+06 RLU |  | 6.61E+06 RLU | 3.16E+06 RLU |  |  |  |
| CCCCC(CCCCCCF)C(=O)OCCCCCCCCN(CCCCO)CCCCCCC(C)C(=O)OCCCCCCCCC(C)C (stereo not shown) [Compound 88, 8-((4-hydroxybutyl)(7-methyl-8-((9-methyldecyl)oxy)-8-oxooctyl)amino)octyl 2-butyl-8-fluorooctanoate] | 3.65E+05 RLU |  | 1.24E+07 RLU | 9.41E+05 RLU |  |  |  |
| CCCCCCCCC(CCCCCCCCF)C(=O)OCCCCCCCN(CCCCO)CCCCCCCOC(=O)C(C)CCCCCCCC(C)C (stereo not shown) [Compound 89, 7-((7-((10-fluoro-2-octyldecanoyl)oxy)heptyl)(4-hydroxybutyl)amino)heptyl 2,10-dimethylundecanoate] | 7.66E+06 RLU |  | 3.88E+07 RLU | 9.61E+06 RLU |  |  |  |
| CCCCCCCC/C=C\CCCCCCC1CN(CCO)CC(CCCCCC(=O)OC(CCCCCCCC)CCCCCCC(C)C)O1 (stereo not shown) [Compound 98, 2-methylheptadecan-9-yl (Z)-6-(6-(hexadec-7-en-1-yl)-4-(2-hydroxyethyl)morpholin-2-yl)hexanoate] |  |  |  |  | 4.38E+04 RLU | 7.95E+04 RLU | 1.27E+05 RLU |
